Experimental data taken from patent publication US20160047819A1, “METHOD FOR DIAGNOSING VAGINAL INFECTIONS” (priority 2013, published 2016).

Experiments:
Test in all cases: Real-time PCR of vaginal bacterial communities
Assay type in all cases: in vivo
[1] = system: Lactobacillus
Procedure: (§1) The qPCR real-time quantitative PCR was used for the identification and quantification of bacterial groups involved in the imbalance that effects the vaginal microbiota, in particular to determine the concentrations of the principal bacterial groups which are known to be affected in the presence of BV such as Lactobacillus, Atopobium, Gardnerella vaginalis, Prevotella, Veillonella, Mobiluncus and Mycoplasma hominis.
(§2) qPCR was performed on DNA samples extracted from CVF of healthy women (H), women affected by BV at V1 (BV), women who were in remission after rifaximin treatment at V3 (R), and women who were not in remission after antibiotic or placebo treatment at V3 (N).
(§3) A total of 80 Belgian pre-menopausal, non-pregnant women, aged between 18 and 50 years were included in the present study. At the screening visit (V1) diagnosis of health or BV was made using both Amsel's criteria and Gram stain Nugent scoring. Patients with Nugent score >3 and positive for at least 3 of 4 Amsel's criteria were considered positive for BV. According to this clinical evaluation, women were split into 2 groups: healthy subjects (H), who had no signs of vaginal tract infection (n=41) and patients affected by BV (n=39).
(§4) Patients who were diagnosed for BV at the study visit V1 were included in a multicentre, double-blind, randomised, placebo-controlled study (EudraCT: 2009-011826-32), that was performed to compare the efficacy of different doses of rifaximin vaginal tablets versus placebo for the treatment of BV. The patients underwent a randomization visit and were distributed into 4 treatment groups: group A received 100 mg rifaximin vaginal tablet once daily for 5 days (n=10), group B received 25 mg rifaximin vaginal tablet once daily for 5 days (n=10), group C received 100 mg rifaximin vaginal tablet once daily for the first 2 days and placebo vaginal tablet for the remaining 3 days (n=9), group D received placebo vaginal tablet once daily for 5 days (n=10). Study medication was administered intra-vaginally at bedtime. After 7 to 10 days from the end of the therapy a follow-up visit (V3) was performed. Remission was evaluated at V3 according to Amsel's criteria (<3) and Gram stain Nugent score (≦3) (Table 1).
(§5) Standardized vaginal rinsings with 2 mL of saline were collected for analysis at V1 and V3 by flushing and re-aspirating the fluid through a 22 Gauge needle in the left, central and right upper vaginal vaults. The vaginal rinsings were subsequently stored at −80° C. until use.
(§6) One mL of each vaginal rinsing was centrifuged at 9500 g for 15 min to separate the pellet, which was processed for bacterial DNA isolation, from the supernatant, used for protein extraction.
(§7) DNA amount was quantified using NanoDrop ND-1000 (NanoDrop® Technologies, Wilmington, Del.).
(§8) Real-time PCR was performed on DNA samples extracted from cervicovaginal fluid (CVF) collected from 41 healthy women (H) and 39 BV-affected women before (BV) and after rifaximin/placebo treatment R (11 women in remission) and N (28 women not in remission).
(§9) Specific primer sets targeted to 16S rRNA gene or 16S-23S rRNA spacer region were used to quantify the following genus or species: Lactobacillus, Gardnerella vaginalis, Atopobium, Prevotella, Veillonella, Mycoplasma hominis and Mobiluncus.

[2] = system: Mycoplasma hominis
Procedure: as §1, §2, §3, §4, §5, §6, §7, §8, §9

[3] = system: Gardnerella vaginalis
Procedure: as §1, §2, §3, §4, §5, §6, §7, §8, §9

[4] = system: Atopobium
Procedure: as §1, §2, §3, §4, §5, §6, §7, §8, §9

[5] = system: Mobiluncus
Procedure: as §1, §2, §3, §4, §5, §6, §7, §8, §9

[6] = system: Prevotella
Procedure: as §1, §2, §3, §4, §5, §6, §7, §8, §9

[7] = system: Veillonella
Procedure: as §1, §2, §3, §4, §5, §6, §7, §8, §9

[8] = R group: women in remission after rifaximin treatment at V3
[9] = R group: women in remission after rifaximin treatment at V3, qPCR

CO[C@H]1/C=C/O[C@@]2(C)Oc3c(C)c(O)c4c(O)c(c5c(nc6cc(C)ccn65)c4c3C2=O)NC(=O)/C(C)=C\C=C\[C@H](C)[C@H](O)[C@@H](C)[C@@H](O)[C@@H](C)[C@H](OC(C)=O)[C@@H]1C [rifaximin]
median value of Lactobacilli in R group relative to BV group ([1]; R group after antibiotic treatment vs BV group, higher): about 10 times | Target DNA/genomic vaginal DNA (median), Lactobacillus [1, 8]: 46.3 ng/µg | % of women hosting Lactobacillus [1, 9]: 100% | M. hominis in R group compared to BV group ([2]; R group at V3 vs BV group): significant reduction | Target DNA/genomic vaginal DNA (median), Mycoplasma hominis [2, 8]: 0.00156 ng/µg | % of women hosting Mycoplasma hominis [2, 9]: 63.6% | G. vaginalis concentration in R group ([3]; R group at V3): very low concentrations | Target DNA/genomic vaginal DNA (median), G. vaginalis [3, 8]: 0.0 ng/µg | % of women hosting Gardnerella vaginalis [3, 9]: 45.5% | Atopobium concentration in R group compared to BV group ([4]; R group at V3 vs BV group, still higher than H group): significantly lower | Target DNA/genomic vaginal DNA (median), Atopobium [4, 8]: 4.86 ng/µg | % of women hosting Atopobium [4, 9]: 100% | Mobiluncus quantification in R group ([5]; R group at V3): not quantified in any of the women | Target DNA/genomic vaginal DNA (median), Mobiluncus [5, 8]: 0.0 ng/µg | % of women hosting Mobiluncus [5, 9]: 0.0% | Prevotella concentration in R group ([6]; R group at V3): very low concentrations | Target DNA/genomic vaginal DNA (median), Prevotella [6, 8]: 0.0451 ng/µg | % of women hosting Prevotella [6, 9]: 81.8% | Veillonella quantification in R group ([7]; R group at V3): not quantified in any of the women | Target DNA/genomic vaginal DNA (median), Veillonella [7, 8]: 0.0 ng/µg | % of women hosting Veillonella [7, 9]: 0.0%
